Experimental data: patent publication US4203989A, “Anti-diarrheal diaryl-(1-azabicyclo(2.2.2)octan-2-yl)-alkanols and related compounds” (G. D. Searle & Co., priority 1979, dated 1980)

System: gastrointestinal motility
Assay: Mouse Cecal Test (inhibition of gastrointestinal motility, charcoal in cecum)
Assay type: in vivo, mouse (male Charles River mice)
Conditions: IG (oral), 30 min before oral charcoal, cecum examined 3.5 h after charcoal, all-or-none, logistic method of Berkson, read-out: ED50 ± S.E. (median effective dose)
Experimental: The method used for this assay is a modification of the techniques previously described by Macht and Barb-Gose, J. Amer. Pharm. Ass., 20, 558 (1931), and Janssen and Jageneau, J. Pharm. Pharmacol., 9, 381 (1957). Details are as follows:
A group of six, male Charles River mice weighing 20-25 g. which have been previously fasted for 24 hours are pretreated with the test compounds administered orally as a solution in water or suspended in 0.5% methyl cellulose. A constant volume of 10 ml./kg. is employed. Thirty minutes following administration of the test compounds, the animals are given a single oral dose of charcoal which consists of 0.2 ml. per mouse of 10% charcoal suspended in 1.0% methyl cellulose. Three and a half hours after charcoal administration, the animals are sacrificed and the cecum examined for the absence or presence of charcoal on an all-or-none basis.
The median effective dose (ED50) is then calculated for each compound using the logistic method of Berkson (1953).

Row | Compound | ED50
1 | Cl.OC1(C(CC2CC3CCN2CC3)(c2ccccc2)c2ccccc2)CCCC1 (centres unmarked) [1-[2-(1-azabicyclo[2.2.2]octan-2-yl)-1,1-diphenylethyl] cyclopentanol hydrochloride] | 1.78 ± 0.83 mg/kg
2 | OC1(C(CC2CC3CCN2CC3)(c2ccccc2)c2ccccc2)CCCC1 (centres unmarked) [1-[2-(1-azabicyclo[2.2.2]octan-2-yl)-1,1-diphenylethyl] cyclopentanol] | 7.61 ± 2.23 mg/kg
3 | CC(C)(O)C(CC1CC2CCN1CC2)(c1ccccc1)c1ccccc1 (stereo not drawn) [Alpha, alpha-dimethyl-beta, beta-diphenyl-1-azabicyclo [2.2.2]octane-2-propanol] | 1.6 ± 0.28 mg/kg
4 | OCCC(CC1CC2CCN1CC2)(c1ccccc1)c1ccccc1 (centres unmarked) [Gamma, gamma-diphenyl-1-azabicyclo[2.2.2]octane-2-butanol] | 6.39 ± 2.09 mg/kg
5 | Cl.OCCC(CC1CC2CCN1CC2)(c1ccccc1)c1ccccc1 (centres unmarked) [gamma, gamma-diphenyl-1-azabicyclo[2.2.2]octane-2-butanol hydrochloride] | 1.2 ± 0.25 mg/kg
